The text below walks through data of PMC12435270 (Proceedings of the National Academy of Sciences of the …, 2025).

Molecules are shown by their SMILES. Where two headings read alike, the source gives them in different places.

For experiment [1], the target named is T1, human creatine transporter (hCRT, SLC6A8) (Homo sapiens, UniProt P48029).
T1 sequence (P48029 1-635): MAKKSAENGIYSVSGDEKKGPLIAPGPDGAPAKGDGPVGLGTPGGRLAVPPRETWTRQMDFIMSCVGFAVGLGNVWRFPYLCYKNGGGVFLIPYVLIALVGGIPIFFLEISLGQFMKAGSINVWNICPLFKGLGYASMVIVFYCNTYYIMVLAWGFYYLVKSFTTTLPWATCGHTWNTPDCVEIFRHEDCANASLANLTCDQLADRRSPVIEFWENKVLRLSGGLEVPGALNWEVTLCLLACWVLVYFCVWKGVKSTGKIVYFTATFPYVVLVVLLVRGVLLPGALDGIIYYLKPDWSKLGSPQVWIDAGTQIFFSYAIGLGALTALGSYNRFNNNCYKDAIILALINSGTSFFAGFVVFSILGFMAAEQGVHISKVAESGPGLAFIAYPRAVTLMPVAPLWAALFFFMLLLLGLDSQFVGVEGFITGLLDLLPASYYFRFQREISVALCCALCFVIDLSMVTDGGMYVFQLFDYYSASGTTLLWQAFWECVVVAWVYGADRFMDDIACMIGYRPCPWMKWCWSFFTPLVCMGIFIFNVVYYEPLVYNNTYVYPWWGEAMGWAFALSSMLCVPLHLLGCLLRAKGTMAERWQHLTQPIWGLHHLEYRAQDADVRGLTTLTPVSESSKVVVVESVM
The experiment can be described thus: cryo-EM structure. The class given is binding.

Experiment [2] has as its target T1, human creatine transporter (hCRT, SLC6A8). Nature of the experiment: cryo-EM structure. The class given is binding. This is another data set of the same source.

Turning to `CN(CC(=O)O)C(=N)N` [creatine], in experiment [1], the equilibrium dissociation constant (Kd) was 3.2 µM.

In turn, `N=C(N)NCCC(=O)O` [RGX202] came in with a Kd in experiment [2] of 3.39 µM.

One may read the Kd as the constant that tells how readily two partners part at equilibrium. A low value points to higher affinity.
